System: HIV-1 single-round infectious reporter virus
Assay: Single-round infectious HIV-1 luciferase reporter virus infection of HeLa CD4 CCR5 cells
Type: cell-based
Conditions: Human immunodeficiency virus 1, HeLa-CD4/CCR5, 72 h, read-out: EC50 Group from Table 1
Description: • Virus production—Human embryonic Kidney cell line, 293, propagated in Dulbecco's Modified Eagle Medium (Life Technologies, Gaithersburg, Md.) containing 10% fetal Bovine serum (FBS, Sigma, St. Louis, Mo.). • Virus infection—Human epithelial cell line, HeLa, expressing the HIV-1 receptors CD4 and CCR5 was propagated in Dulbecco's Modified Eagle Medium (Life Technologies, Gaithersburg, Md.) containing 10% fetal Bovine serum (FBS, Sigma, St. Louis, Mo.) and supplemented with 0.2 mg/mL Geneticin (Life Technologies, Gaithersburg, Md.) and 0.4 mg/mL Zeocin (Invitrogen, Carlsbad, Calif.). Virus-Single-round infectious reporter virus was produced by co-transfecting human embryonic Kidney 293 cells with an HIV-1 envelope DNA expression vector and a proviral cDNA containing an envelope deletion mutation and the luciferase reporter gene inserted in place of HIV-1 nef sequences (Chen et al, Ref 41). Transfections were performed using lipofectAMINE PLUS reagent as described by the manufacturer (Life Technologies, Gaithersburg, Md.). Experiment • 1. Compound was added to HeLa CD4 CCR5 cells plated in 96 well plates at a cell density of 1×10^4 cells per well in 100 μl Dulbecco's Modified Eagle Medium containing 10% fetal Bovine serum at a concentration of <20 μM. • 2. 100 μl of single-round infectious reporter virus in Dulbecco's Modified Eagle Medium was then added to the plated cells and compound at an approximate multiplicity of infection (MOI) of 0.01, resulting in a final volume of 200 μl per well and a final compound concentration of <10 μM. • 3. Samples were harvested 72 h after infection. • 4. Viral infection was monitored by measuring luciferase expression from viral DNA in the infected cells using a luciferase reporter gene assay kit (Roche Molecular Biochemicals, Indianapolis, Ind.). Infected cell supernatants were removed and 50 μl of Dulbecco's Modified Eagle Medium (without phenol red) and 50 μl of luciferase assay reagent reconstituted as described by the manufacturer (Roche Molecular Biochemicals, Indianapolis, Ind.) was added per well. Luciferase activity was then quantified by measuring luminescence using a Wallac microbeta scintillation counter. • 5. The percent inhibition for each compound was calculated by quantifying the level of luciferase expression in cells infected in the presence of each compound as a percentage of that observed for cells infected in the absence of compound and subtracting such a determined value from 100. • 6. An EC50 provides a method for comparing the antiviral potency of the compounds of this invention. The effective concentration for fifty percent inhibition (EC50) was calculated with the Microsoft Excel Xlfit curve fitting software. For each compound, curves were generated from percent inhibition calculated at 10 different concentrations by using a four paramenter logistic model (model 205). Table 1 is the key for the data in Tables 2-4.

| SMILES | EC50 [nM] |
| --- | --- |
| O=C(C(=O)N1CCN(c2nccc3ccccc23)CC1)c1c[nH]c2c(Cl)ncnc12 [Example 30, 1-(4-Chloro-5H-pyrrolo[3,2-d]pyrimidin-7-yl)-2-(4-(isoquinolin-1-yl)piperazin-1-yl)ethane-1,2-dione] | < 1000 |
| O=C(C(=O)N1CCN(c2nccc3ccccc23)CC1)c1c[nH]c2c(-c3cnccn3)ncnc12 [Example 31, 1-(4-(Isoquinolin-1-yl)piperazin-1-yl)-2-(4-(pyrazin-2-yl)-5H-pyrrolo[3,2-d]pyrimidin-7-yl)ethane-1,2-dione] | < 1000 |
| O=C(C(=O)N1CCN(c2nccc3ccccc23)CC1)c1c[nH]c2c(-n3cccn3)ncnc12 [Example 32, 1-(4-(1H-Pyrazol-1-yl)-5H-pyrrolo[3,2-d]pyrimidin-7-yl)-2-(4-(isoquinolin-1-yl)piperazin-1-yl)ethane-1,2-dione] | < 1000 |
| N#CC(=C1CCN(C(=O)C(=O)c2c[nH]c3c(Cl)ncnc23)CC1)c1ccccc1 [Example 33, 2-(1-(2-(4-Chloro-5H-pyrrolo[3,2-d]pyrimidin-7-yl)-2-oxoacetyl)piperidin-4-ylidene)-2-phenylacetonitrile] | < 1000 |
| N#CC(=C1CCN(C(=O)C(=O)c2c[nH]c3c(-c4cncnc4)ncnc23)CC1)c1ccccc1 [Example 34, 2-(1-(2-Oxo-2-(4-(pyrimidin-5-yl)-5H-pyrrolo[3,2-d]pyrimidin-7-yl)acetyl)piperidin-4-ylidene)-2-phenylacetonitrile] | < 1000 |
| O=C(C(=O)N1CCC(=C(c2ccccc2)c2nnco2)CC1)c1c[nH]c2c(Cl)ncnc12 [Example 35] | < 1000 |
| O=C(C(=O)N1CCC(=C(c2ccccc2)c2nnco2)CC1)c1c[nH]c2c(-n3cncn3)ncnc12 [Example 36, 1-(4-((1,3,4-Oxadiazol-2-yl)(phenyl)methylene)piperidin-1-yl) -2-(4-(1H-1,2,4-triazol-1-yl)-5H-pyrrolo[3,2-d]pyrimidin-7-yl)ethane-1,2-dione] | < 1000 |
| O=C(C(=O)N1CCC(=C(c2ccccc2)c2nnco2)CC1)c1c[nH]c2c(-n3cccn3)ncnc12 [Example 37, 1-(4-((1,3,4-Oxadiazol-2-yl)(phenyl)methylene)piperidin-1-yl) -2-(4-(1H-pyrazol-1-yl)-5H-pyrrolo[3,2-d]pyrimidin-7-yl)ethane-1,2-dione] | < 1000 |
| N#CC(=C1CCN(C(=O)C(=O)c2c[nH]c3c(-n4cccn4)ncnc23)CC1)c1ccccn1 [Example 38, 2-(1-(2-(4-(1H-pyrazol-1-yl)-5H-pyrrolo[3,2-d]pyrimidin-7-yl)-2-oxoacetyl)piperidin-4-ylidene)-2-(pyridin-2-yl)acetonitrile] | < 1000 |
| O=C(C(=O)N1CCN(C(=O)c2ccccc2)CC1)c1c[nH]c2c(-n3ccc(-c4ccccn4)n3)ncnc12 [Example 39, 1-(4-Benzoylpiperazin-1-yl)-2-(4-(3-(pyridin-2-yl) -1H-pyrazol-1-yl)-5H-pyrrolo[3,2-d]pyrimidin-7-yl)ethane-1,2-dione] | < 1000 |
| O=C(C(=O)N1CCN(c2ncnc3ccccc23)CC1)c1c[nH]c2c(-n3cccn3)ncnc12 [Example 40, 1-(4-(1H-Pyrazol-1-yl)-5H-pyrrolo[3,2-d]pyrimidin-7-yl)-2-(4-(quinazolin-4-yl)piperazin-1-yl)ethane-1,2-dione] | < 1000 |
| O=C(C(=O)N1CCN(C(=O)c2ccccc2)CC1)c1c[nH]c2c(N3CCN(C(=O)c4cc[nH]n4)CC3)ncnc12 [Example 41, 1-(4-(4-(1H-Pyrazole-3-carbonyl)piperazin-1-yl)-5H -pyrrolo[3,2-d]pyrimidin-7-yl)-2-(4-benzoylpiperazin-1-yl)ethane-1,2-dione] | < 1000 |
| N#CC(=C1CCN(C(=O)C(=O)c2c[nH]c3c(-n4cccn4)ncnc23)CC1)c1ccccc1 [Example 42, 2-(1-(2-(4-(1H-Pyrazol-1-yl)-5H-pyrrolo[3,2-d]pyrimidin-7-yl)-2-oxoacetyl)piperidin-4-ylidene)-2-phenylacetonitrile] | < 1000 |
| N#CC(=C1CCN(C(=O)C(=O)c2c[nH]c3c(-c4cc[nH]n4)ncnc23)CC1)c1ccccc1 [Example 43, 2-(1-(2-(4-(1H-pyrazol-3-yl)-5H-pyrrolo[3,2-d]pyrimidin-7-yl)-2-oxoacetyl)piperidin-4-ylidene)-2-phenylacetonitrile] | < 1000 |
